Earlier results in patent US20230210793A1 (priority 2021, published 2023).

For `O=NN(CCCl)C(=O)NCCCl` [Carmustine, 1,3-bis(2-chloroethyl)-1-nitrosourea], the solubility in water is listed as “poorly soluble”.
